{
  "source": "patent US20120009125A1",
  "about": "“APOE4 AND APOJ BIOMARKER-BASED PREVENTION AND TREATMENT OF DEMENTIA” (priority 2010, published 2012)",
  "origin": "cited, not measured here",
  "key": {"Hsp70, Hsp90, and Hsp105": {"tested_on": "Hsp70, Hsp90, and Hsp105", "details": "cell model"}, "HSPs": {"tested_on": "HSPs", "details": "oral administration"}},
  "note": "Read-outs that look alike come from different tables or passages of the source.",
  "data": [
    {"smiles": "CC(=O)CC/C=C(\\C)CC/C=C(\\C)CC/C=C(\\C)CCC=C(C)C", "note": "[GGA, (9E;13E)-6,10,14,18-tetramethyl-5,9,13,17-nonadecatetraen-2-one]", "values": [
      {"measurement": "solubility in water", "result": "practically insoluble"},
      {"measurement": "amyloid oligomer levels and aggregates", "setting": "amyloid oligomer", "result": "reduces"},
      {"measurement": "amyloid oligomer levels and aggregates", "setting": "amyloid oligomer; oral administration", "result": "reduces"},
      {"measurement": "levels of Hsp70, Hsp90, and Hsp105", "setting": "Hsp70, Hsp90, and Hsp105", "result": "increased"},
      {"measurement": "cell death", "setting": "cell model", "result": "inhibited"},
      {"measurement": "expression of HSPs in the central nervous system", "setting": "HSPs", "result": "up-regulated"}
    ]}
  ]
}
